The values that follow come from patent US12473304B2, “Heterocyclic PAD4 inhibitors” (BRISTOL-MYERS SQUIBB COMPANY, priority 2020, dated 2025).

In this test the target is human PAD4 (hPAD4) (Homo sapiens (Human), UniProt Q9UM07). The test can be described thus: RFMS Human PAD4 Functional Assay 1. It is filed as biochemical. To be noted: RFMS assay 1; 5 nM hPAD4, 250 μM BAEE substrate, 50 μM calcium, 37° C. The method, boiled down:
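Recombinant hPAD4 (5 nM) was preincubated with compound (top 50 μM, 0.5% DMSO) for 30 min at 37 °C, then reacted with 250 μM BAEE for 90 min at 37 °C in pH 7.5 HEPES buffer with 50 μM calcium and 5 μM TPEN. Product was derivatized with phenyl glyoxal and quantified by RapidFire MS.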

Chain of human PAD4 (hPAD4) (Q9UM07 whole entry): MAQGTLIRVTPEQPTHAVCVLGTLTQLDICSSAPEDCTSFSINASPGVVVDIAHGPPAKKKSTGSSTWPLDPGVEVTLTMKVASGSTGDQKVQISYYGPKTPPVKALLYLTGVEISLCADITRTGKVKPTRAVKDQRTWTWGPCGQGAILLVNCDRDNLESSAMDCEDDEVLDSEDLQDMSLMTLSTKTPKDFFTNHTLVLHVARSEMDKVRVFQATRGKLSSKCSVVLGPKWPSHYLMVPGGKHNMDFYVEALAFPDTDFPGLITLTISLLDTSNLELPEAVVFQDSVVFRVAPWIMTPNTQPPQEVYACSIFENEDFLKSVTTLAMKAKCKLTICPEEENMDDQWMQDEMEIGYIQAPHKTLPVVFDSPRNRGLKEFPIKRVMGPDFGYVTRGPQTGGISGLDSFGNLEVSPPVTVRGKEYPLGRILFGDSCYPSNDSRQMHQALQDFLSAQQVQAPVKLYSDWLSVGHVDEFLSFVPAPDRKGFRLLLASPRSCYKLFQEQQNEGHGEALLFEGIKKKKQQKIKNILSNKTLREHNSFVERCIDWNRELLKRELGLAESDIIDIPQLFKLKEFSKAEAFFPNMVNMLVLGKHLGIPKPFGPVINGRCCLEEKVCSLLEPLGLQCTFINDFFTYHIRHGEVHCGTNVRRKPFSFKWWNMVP

One may read the IC50 as the concentration needed to halve the response being measured. With `Cc1c(-c2cc3cccc(C4CCN(C(=O)[C@H]5CC[C@@H](O)CC5)CC4)c3n2CC2CC2)nn2cc(C(=O)N3C[C@H](N)C[C@@H](F)C3)ccc12` [Example 444, ((3R,5R)-3-amino-5-fluoropiperidin-1-yl)(2-(1-(cyclopropylmethyl)-7-(1-((1s,4s)-4-hydroxycyclohexane-1-carbonyl)piperidin-4-yl)-1H-indol-2-yl)-3-methylpyrazolo[1,5-a]pyridin-6-yl)methanone], the IC50 is 10 nM.

Consider `COCC1CN(c2ccc3cc(-c4nn5cc(C(=O)N6C[C@H](N)C[C@@H](F)C6)cc(OC)c5c4C)n(CC4CC4)c3c2)C1` [Example 33, ((3R,5R)-3-Amino-5-fluoropiperidin-1-yl)(2-(1-(cyclopropylmethyl)-6-(3-(methoxymethyl)-azetidin-1-yl)-1H-indol-2-yl)-4-methoxy-3-methylpyrazolo[1,5-a]pyridin-6-yl)methanone], for which the IC50 came out at 534 nM.

With `COc1cc(C(=O)N2C[C@H](N)C[C@@H](F)C2)cn2nc(-c3cc4ccc(-c5ccn6c(C)nnc6c5)nc4n3CC3CC3)c(C)c12` [Example 21, ((3R,5R)-3-Amino-5-fluoropiperidin-1-yl)(2-(1-(cyclopropylmethyl)-6-(3-methyl-[1,2,4]triazolo[4,3-a]pyridin-7-yl)-1H-pyrrolo[2,3-b]pyridin-2-yl)-4-methoxy-3-methylpyrazolo[1,5-a]pyridin-6-yl)methanone], the IC50 worked out at 91 nM.

Take `COc1cc(C(=O)N2C[C@H](N)C[C@@H](F)C2)cn2nc(-c3cc4cccc(C5CCN(C(=O)C6CCCO6)CC5)c4n3CC3CC3)c(C)c12` (single isomer, unassigned) [Example 397]: the IC50 was 40 nM.

Regarding `COc1cc(C(=O)N2CCC[C@@H](N)C2)cn2nc(-c3cc4cccc(C5CCN(C(C)=O)CC5)c4n3CC3CC3)c(C)c12` [Example 410, (R)-1-(4-(2-(6-(3-Aminopiperidine-1-carbonyl)-4-methoxy-3-methylpyrazolo[1,5-a]pyridin-2-yl)-1-(cyclopropylmethyl)-1H-indol-7-yl)piperidin-1-yl)ethan-1-one], the IC50 turned out to be 90 nM.

For `COc1cc(C(=O)N2CCC[C@@H](N)C2)cn2nc(-c3cc4cccc(C5CCN(C(=O)C6CC(O)C6)CC5)c4n3CC3CC3)c(C)c12` (single isomer, unassigned) [Example 396], the IC50 was determined as 110 nM.

Consider `Cc1c(-c2cc3ccc(-c4ccc5cn[nH]c5c4)cc3n2CC2CC2)nn2cc(C(=O)N3CC4CCC3[C@@H]4N)ccc12` (stereo partly drawn) [Example 332, (7R)-2-{2-[1-(Cyclopropylmethyl)-6-(1H-indazol-6-yl)-1H-indol-2-yl]-3-methylpyrazolo[1,5-a]pyridine-6-carbonyl}-2-azabicyclo[2.2.1]heptan-7-amine], for which the IC50 was determined as 20 nM.

For `Cc1c(-c2cc3ccc(-c4ccn5c(C)nnc5c4)cc3n2CC2CC2)nn2cc(C(=O)N3CC4CCC3[C@@H]4N)cc(F)c12` (stereo partly drawn) [Example 295, (7R)-2-{2-[1-(Cyclopropylmethyl)-6-{3-methyl-[1,2,4]triazolo[4,3-a]pyridin-7-yl}-1H-indol-2-yl]-4-fluoro-3-methylpyrazolo[1,5-a]pyridine-6-carbonyl}-2-azabicyclo[2.2.1]heptan-7-amine], the IC50 stood at 20 nM.

Consider `Cc1c(-c2cc3ccc(-c4ccc(C(N)=O)c(Cl)c4)cc3n2CC2CC2)oc2cc(C(=O)N3CC4CCC3[C@@H]4N)ccc12` (stereo partly drawn) [Example 183, 4-(2-(6-((7R)-7-Amino-2-azabicyclo[2.2.1]heptane-2-carbonyl)-3-methylbenzofuran-2-yl)-1-(cyclopropylmethyl)-1H-indol-6-yl)-2-chlorobenzamide], for which the IC50 came out at 88 nM.

Consider `Cc1c(-c2cc3ccc(N4CCC(N5CCCC5=O)CC4)cc3n2CC2CC2)nn2cc(C(=O)N3CCC[C@@H](N)C3)ccc12` [Example 363, 1-[1-(2-{6-[(3R)-3-Aminopiperidine-1-carbonyl]-3-methylpyrazolo[1,5-a]pyridin-2-yl}-1-(cyclopropylmethyl)-1H-indol-6-yl)piperidin-4-yl]pyrrolidin-2-one], for which the IC50 was 2280 nM.

Turning to `COc1cc(-c2ccc3cc(-c4nn5cc(C(=O)N6CC7CCC6[C@@H]7N)ccc5c4C)n(CC4CC4)c3n2)ccc1C(N)=O` (stereo partly drawn) [Example 303, 4-(2-{6-[(7R)-7-Amino-2-azabicyclo[2.2.1]heptane-2-carbonyl]-3-methylpyrazolo[1,5-a]pyridin-2-yl}-1-(cyclopropylmethyl)-1H-pyrrolo[2,3-b]pyridin-6-yl)-2-methoxybenzamide], the IC50 amounted to 240 nM.

With `COc1cc(C(=O)N2CC3CCC2[C@@H]3N)cc2oc(-c3cc4ccc(-c5ccc6c(c5)CNC6=O)cc4n3CC3CC3)c(C)c12` (stereo partly drawn) [Example 149, 5-(2-(6-((7R)-7-Amino-2-azabicyclo[2.2.1]heptane-2-carbonyl)-4-methoxy-3-methylbenzofuran-2-yl)-1-(cyclopropylmethyl)-1H-indol-6-yl)isoindolin-1-one], the IC50 worked out at 111 nM.

Take `COc1cc(C(=O)N2C[C@H](N)C[C@@H](F)C2)cn2nc(-c3cc4cccc(C5CCN(C(=O)[C@@H](C)OC)CC5)c4n3CC3CC3)c(C)c12` [Example 395, (R)-1-(4-(2-(6-((3R,5R)-3-Amino-5-fluoropiperidine-1-carbonyl)-4-methoxy-3-methylpyrazolo[1,5-a]pyridin-2-yl)-1-(cyclopropylmethyl)-1H-indol-7-yl)piperidin-1-yl)-2-methoxypropan-1-one]: the IC50 turned out to be 140 nM.

For `Cc1c(-c2cc3ccc(-c4ccc5cn[nH]c5c4)nc3n2CC2CC2)nn2cc(C(=O)N3CCC[C@@H](N)C3)ccc12` [Example 310, (3R)-1-{2-[1-(Cyclopropylmethyl)-6-(1H-indazol-6-yl)-1H-pyrrolo[2,3-b]pyridin-2-yl]-3-methylpyrazolo[1,5-a]pyridine-6-carbonyl}piperidin-3-amine], the IC50 was determined as 400 nM.

With `Cc1c(-c2cc3cc(F)cc(C4CCN(C(=O)C5CC(O)C5)CC4)c3n2CC2CC2)nn2cc(C(=O)N3CCC[C@@H](N)C3)ccc12` (mixture of isomers) [Example 492, (R)-(3-Aminopiperidin-1-yl)(2-(1-(cyclopropylmethyl)-5-fluoro-7-(1-(3-hydroxycyclobutane-1-carbonyl)piperidin-4-yl)-1H-indol-2-yl)-3-methylpyrazolo[1,5-a]pyridin-6-yl)methanone], the IC50 came out at 130 nM.

On to `Cc1c(-c2cc3cccc(OCC4CNC(=O)C4)c3n2CC2CC2)nn2cc(C(=O)N3CCC[C@@H](N)C3)ccc12` (single isomer, unassigned) [Example 588], for which the IC50 worked out at 230 nM.

As to `Cc1c(-c2cc3ccc(-c4cccc(CO)c4)cc3n2CC2CC2)nn2cc(C(=O)N3C[C@H](N)C[C@@H](F)C3)ccc12` [Example 371, [3-(2-{6-[(3R,5R)-3-Amino-5-fluoropiperidine-1-carbonyl]-3-methylpyrazolo[1,5-a]pyridin-2-yl}-1-(cyclopropylmethyl)-1H-indol-6-yl)phenyl]methanol], the IC50 was 1070 nM.

For the compound `COc1cc(C(=O)N2C[C@H](N)C[C@@H](F)C2)cn2nc(-c3cc4cccc(C5CCN(C(C)=O)CC5)c4n3CC3CC3)c(C)c12` [Example 411, 1-(4-(2-(6-((3R,5R)-3-Amino-5-fluoropiperidine-1-carbonyl)-4-methoxy-3-methylpyrazolo[1,5-a]pyridin-2-yl)-1-(cyclopropylmethyl)-1H-indol-7-yl)piperidin-1-yl)ethan-1-one], the IC50 was 110 nM.

For `COc1cc(C(=O)N2CCC[C@@H](N)C2)cn2nc(-c3cc4ccc(N5CCC(C(=O)N6CC(OC)C6)CC5)cc4n3CC3CC3)c(C)c12` [Example 251, (3R)-1-{2-[1-(Cyclopropylmethyl)-6-[4-(3-methoxyazetidine-1-carbonyl)piperidin-1-yl]-1H-indol-2-yl]-4-methoxy-3-methylpyrazolo[1,5-a]pyridine-6-carbonyl}piperidin-3-amine], the IC50 is 180 nM.

Take `Cc1c(-c2cc3ccc(N4CCOCC4=O)nc3n2CC2CC2)nn2cc(C(=O)N3CC4CCC3[C@@H]4N)ccc12` (stereo partly drawn) [Example 319, 4-(2-{6-[(7R)-7-Amino-2-azabicyclo[2.2.1]heptane-2-carbonyl]-3-methylpyrazolo[1,5-a]pyridin-2-yl}-1-(cyclopropylmethyl)-1H-pyrrolo[2,3-b]pyridin-6-yl)morpholin-3-one]: the IC50 stood at 50 nM.

Regarding `Cc1c(-c2cc3ccc(C(C)O)nc3n2CC2CC2)nn2cc(C(=O)N3CC4CCC3[C@@H]4N)ccc12` (stereo partly drawn) [Example 104, ((7R)-7-Amino-2-azabicyclo[2.2.1]heptan-2-yl)(2-(1-(cyclopropylmethyl)-6-(1-hydroxyethyl)-1H-pyrrolo[2,3-b]pyridin-2-yl)-3-methylpyrazolo[1,5-a]pyridin-6-yl)methanone], the IC50 was 25 nM.

Regarding `Cc1c(-c2cc3ccc(-c4ccc(OC(F)F)c(F)c4)nc3n2CC2CC2)nn2cc(C(=O)N3CC4CCC3[C@@H]4N)ccc12` (stereo partly drawn) [Example 73, ((7R)-7-Amino-2-azabicyclo[2.2.1]heptan-2-yl)(2-(1-(cyclopropylmethyl)-6-(4-(difluoromethoxy)-3-fluorophenyl)-1H-pyrrolo[2,3-b]pyridin-2-yl)-3-methylpyrazolo[1,5-a]pyridin-6-yl)methanone], the IC50 was 605 nM.

As for `Cc1c(-c2cc3ccc(N4CCC(n5cccn5)CC4)cc3n2CC2CC2)nn2cc(C(=O)N3CCC[C@@H](N)C3)ccc12` [Example 365, (3R)-1-{2-[1-(Cyclopropylmethyl)-6-[4-(1H-pyrazol-1-yl)piperidin-1-yl]-1H-indol-2-yl]-3-methylpyrazolo[1,5-a]pyridine-6-carbonyl}piperidin-3-amine], the IC50 is 720 nM.

With `COc1cc(C(=O)N2CCC[C@@H](N)C2)cn2nc(-c3cc4cccc(C5CN(C(=O)[C@H]6CC[C@@H](O)CC6)C5)c4n3CC3CC3)c(C)c12` [Example 520, ((R)-3-Aminopiperidin-1-yl)(2-(1-(cyclopropylmethyl)-7-(1-((1s,4s)-4-hydroxycyclohexane-1-carbonyl)azetidin-3-yl)-1H-indol-2-yl)-4-methoxy-3-methylpyrazolo[1,5-a]pyridin-6-yl)methanone], the IC50 was found to be 220 nM.
